SMILES strings stand for the structures.

In patent US20060247320A1, “Compounds for inhibiting KSP kinesin activity” (priority 2005, published 2006) one finds IC50 data, which are given here for 54 molecules.

The target in the first assay is T1, KSP motor domain (Homo sapiens, UniProt P52732).
T1 sequence (P52732 18-359 limits assumed): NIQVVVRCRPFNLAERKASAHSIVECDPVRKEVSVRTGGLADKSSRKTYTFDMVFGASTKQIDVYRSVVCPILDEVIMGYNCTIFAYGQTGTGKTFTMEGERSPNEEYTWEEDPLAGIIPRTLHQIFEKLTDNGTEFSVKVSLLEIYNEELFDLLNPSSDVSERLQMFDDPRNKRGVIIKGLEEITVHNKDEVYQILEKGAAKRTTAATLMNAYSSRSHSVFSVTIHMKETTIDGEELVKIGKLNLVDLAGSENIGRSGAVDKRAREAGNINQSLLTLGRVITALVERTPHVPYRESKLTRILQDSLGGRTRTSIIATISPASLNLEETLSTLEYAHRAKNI
Put plainly: biochemical. Conditions: IC50 (nM), KSP inhibitory activity, end-point assay; class symbols (Table 1).
Usually IC50 stands for the point on the concentration scale where inhibition reaches its midpoint. In turn, `CC(C)(C)C1CCc2nc3sc(COC(N)=O)cc3cc2C1` (stereo not drawn) [Example 147] came in with an IC50 of 1000 to 10000 nM.

The same assay, now with this note: KSP inhibitory activity, end-point assay; class symbols (Table 1); read-out: IC50.
Regarding `N#Cc1sc2nc3c(cc2c1N)CN(Cc1ccccc1)CC3` [Example 56], the IC50 is > 10000 nM.
As to `CC(C)(C)C1CCc2nc3sc(C(=O)NN4CCOCC4)cc3cc2C1` (stereo not drawn) [Example 200, 6-(1,1-Dimethylethyl)-5,6,7,8-Tetrahydro-N-(4-Morpholinyl)thieno[2,3-b]quinoline-2-Carboxamide], the IC50 lay within 1000 to 10000 nM.
Same read-out and setting: in the case of `CC(C)(C)C1CCc2nc3sc(C(=O)N[C@H](CN)Cc4ccccc4)cc3cc2C1` (stereo partly drawn) [Example 179] it was 100 to 1000 nM.
The same measure, in the same setting: the value for `C[C@H](NC(=O)c1cc2cc3c(nc2s1)CCC(C(C)(C)C)C3)C(=N)N` (stereo partly drawn) [Example 169] was < 100 nM; that for `Cn1ccnc1C(=O)Nc1cccc([C@@H](CN)NC(=O)c2cc3cc4c(nc3s2)CC[C@@H](C(C)(C)C)C4)c1` [Example 250] was < 100 nM.
With `CC(C)(C)C1CCc2nc3sc(C#N)nc3cc2C1` (stereo not drawn) [Example 130, 7-tert-Butyl-5,6,7,8-tetrahydrothiazolo[5,4-b]quinoline-2-carbonitrile], the IC50 was 1000 to 10000 nM.
With `CC(C)(C)C1CCc2nc3sc(C(N)=O)cc3cc2C1` (stereo not drawn) [Example 64, 6-tert-butyl-5,6,7,8-tetrahydrothieno[2,3-b]quinoline-2-carboxylic acid amide], the IC50 was < 100 nM.
On to `CC(C)(C)C1CCc2nc3sc(C(=O)N[C@H](CO)Cc4ccccc4)cc3cc2C1` (stereo partly drawn) [Example 159], for which the IC50 is > 10000 nM.
Same read-out and setting: the value for `CC(C)(C)C1CCc2nc3sc(C#N)cc3cc2C1` (racemic) [Example 58, 6-tert-butyl-5,6,7,8-tetrahydrothieno[2,3-b]quinoline-2-carbonitrile] was 100 to 1000 nM.
The same measure, in the same setting: in the case of `CCC(C)(C)C1CCc2nc3sc(C(N)=O)cc3c(Cl)c2C1` (stereo not drawn) [Example 115] it was 1000 to 10000 nM; in that of `CC(C)(C)C1CCc2nc3sc(C(=O)NC(CO)C(N)=O)cc3cc2C1` (stereo not drawn) [Example 100], 100 to 1000 nM; in that of `CC(C)(C)[C@@H]1CCc2nc3sc(C(=O)N[C@H](CN)c4cccc(NC(=O)c5nsc(Cl)c5Cl)c4)cc3cc2C1` [Example 253A], 100 to 1000 nM.
On the same count and under the same terms, in the case of `CC(C)C1Cc2cc3c(N)c(C#N)sc3nc2CC1C` (stereo not drawn) [Example 207, 3-Amino-6-isopropyl-7-methyl-5,6,7,8-tetrahydro-thieno[2,3-b]quinoline-2-carbonitrile] it was > 10000 nM; in that of `CC(C)(C)C1CCCc2nc3sc(C#N)cc3cc2C1` (stereo not drawn) [Example 60], < 100 nM.
With `CC(C1CCc2nc3sc(C#N)c(N)c3cc2C1)C(C)(C)C` (stereo not drawn) [Example 23], the IC50 is > 10000 nM.
The same measure, in the same setting: the value for `N#Cc1sc2nc3c(cc2c1N)CC(C(F)(F)F)CC3` (stereo not drawn) [Example 14] was 1000 to 10000 nM; that for `CC(C)(C)CC1CCc2nc3sc(C#N)c(N)c3cc2C1` (stereo not drawn) [Example 25] was 100 to 1000 nM; that for `CC(C)C1CCc2cc3c(N)c(C#N)sc3nc2C1` (stereo not drawn) [Example 51] was > 10000 nM.
The same measure, in the same setting: the value for `CC(C)(C)C1CCc2nc3sc(C(=O)NCC#N)cc3cc2C1` (stereo not drawn) [Example 167, 6-tert-Butyl-5,6,7,8-tetrahydrothieno[2,3-b]quinoline-2-carboxylic acid cyanomethyl-amide] was 100 to 1000 nM.
With `CC(C)(C)C1CCc2nc3sc(C(=O)NCCCN4CCCC4=O)cc3cc2C1` (stereo not drawn) [Example 196, 6-(1,1-Dimethylethyl)-5,6,7,8-Tetrahydro-N-[3-(2-oxo-1-Pyrrolidinyl)propyl]thieno[2,3-b]quinoline-2-Carboxamide], the IC50 fell in the range of 1000 to 10000 nM.
Regarding `CC(C)(C)C1CCc2nc3sc(C(=O)NC(CN)c4ccc(C(N)=O)cc4)cc3cc2C1` (stereo not drawn) [Example 224, 6-tert-butyl-5,6,7,8-tetrahydrothieno[2,3-b]quinoline-2-carboxylic acid [2-amino-1-(4-carbamoylphenyl)ethyl]amide], the IC50 was < 100 nM.
Regarding `Cc1oncc1C(=O)Nc1cccc([C@@H](CN)NC(=O)c2cc3cc4c(nc3s2)CC[C@@H](C(C)(C)C)C4)c1` [Example 233], the IC50 was < 100 nM.
On to `CC(C)(C)[C@@H]1CCc2nc3sc(C(=O)N[C@H](CN)c4cccc(NC(=O)c5nsnc5N)c4)cc3cc2C1` [Example 255], for which the IC50 is < 100 nM.
Turning to `CC(C)(C)C1CCc2nc3sc(CNC(=O)C4CC4)cc3cc2C1` (stereo not drawn) [Example 155], the IC50 fell in the range of 1000 to 10000 nM.
Still for that read-out and setting: the value for `CC(C)(C)C1CCc2nc3sc(C(=O)N[C@@H](Cc4ccccc4)C(=N)N)cc3cc2C1` (stereo partly drawn) [Example 173] was 1000 to 10000 nM; that for `CC(C)C(C)(C)C1CCc2nc3sc(C#N)c(N)c3cc2C1` (stereo not drawn) [Example 7] was > 10000 nM; that for `CC1(C)Cc2nc3sc(C#N)c(N)c3cc2C(C)(C)C1` [Example 48] was > 10000 nM.
Same read-out and setting: in the case of `CC(C)(C)[C@@H]1CCc2nc3sc(C(=O)N[C@H](CN)c4cccc(NC(=O)c5ccno5)c4)cc3cc2C1` [Example 231, 6(R)-tert-butyl-5,6,7,8-tetrahydro-thieno[2,3-b]quinoline-2-carboxylic acid (2-amino-1(S)-{3-[(isoxazole-5-carbonyl)-amino]-phenyl}-ethyl)-amide] it was < 100 nM; in that of `CC(C)(C)C1CCc2nc3sc(-c4ncc(CO)[nH]4)cc3cc2C1` (stereo not drawn) [Example 183, [2-(6-tert-Butyl-5,6,7,8-tetrahydrothieno[2,3-b]quinolin-2-yl)-3H-imidazol-4-yl]methanol], 1000 to 10000 nM.
On to `CC(C)(C)C1CCc2nc3sc(C(=O)N[C@H](CN)c4ccc(C#N)cc4)cc3cc2C1` (stereo partly drawn) [Example 216], for which the IC50 is < 100 nM.
As for `CC(C)(C)C(C)(C)C1CCc2nc3sc(C#N)c(N)c3cc2C1` (stereo not drawn) [Example 9], the IC50 lay in the range of 1000 to 10000 nM.
In the case of `CN1CCN(C(=O)c2cc3cc4c(nc3s2)CCC(C(C)(C)C)C4)CC1` (stereo not drawn) [Example 97], the IC50 was > 10000 nM.
Regarding `CC(C)(C)C1CCc2nc3sc(C(=O)Nc4ccncc4)cc3cc2C1` (stereo not drawn) [Example 226C], the IC50 fell in the range of 100 to 1000 nM.
Turning to `CC(C)(C)[C@@H]1CCc2nc3sc(C(=O)N[C@H](CN)c4cccc(NC(=O)c5ccns5)c4)cc3cc2C1` [Example 235], the IC50 is < 100 nM.
The same measure, in the same setting: the value for `CC(C)(C)C1CCc2nc3c(cc2C1)c(N)c(C#N)[s+]3[O-]` (stereo not drawn) [Example 126, 3-Amino-6-tert-butyl-1-oxo-5,6,7,8-tetrahydro-1H-1λ^4-thieno[2,3-b]quinoline-2-carbonitrile] was 1000 to 10000 nM; that for `C[C@@H]1CN(C(=O)Nc2cccc([C@@H](CN)NC(=O)c3cc4cc5c(nc4s3)CC[C@@H](C(C)(C)C)C5)c2)C[C@H](C)N1` [Example 279] was < 100 nM; that for `CC(C)(C)C1CCc2nc3sc(C(=O)N[C@H](CO)Cc4ccc(O)cc4)cc3cc2C1` (stereo partly drawn) [Example 161, 6-tert-Butyl-5,6,7,8-tetrahydrothieno[2,3-b]quinoline-2-carboxylic acid [2-hydroxy-(1S)-1-(4-hydroxybenzyl)ethyl]amide] was > 10000 nM.
In the case of `CC(C)(C)C1CCc2nc3sc(C(=O)NCCN4CCNCC4)cc3cc2C1` (stereo not drawn) [Example 197, 6-(1,1-Dimethylethyl)-5,6,7,8-Tetrahydro-N-[2-(1-Piperazinyl)ethyl]thieno[2,3-b]quinoline-2-Carboxamide], the IC50 lay within 100 to 1000 nM.
In the case of `CC(C)(C)[C@@H]1CCc2nc3sc(C(=O)N[C@H](CN)c4cccc(NC(=O)c5ncc[nH]5)c4)cc3cc2C1` [Example 247], the IC50 was < 100 nM.
Take `CCCC1CCc2nc3sc(C#N)c(N)c3cc2C1` (stereo not drawn) [Example 15]: the IC50 fell in the range of 1000 to 10000 nM.
For `CC(C)(C)C1CCc2nc3sc(C(=O)NCc4ccccc4)cc3cc2C1` (stereo not drawn) [Example 78], the IC50 is > 10000 nM.
Turning to `Cc1onc(-c2ccccc2)c1C(=O)Nc1cccc([C@@H](CN)NC(=O)c2cc3cc4c(nc3s2)CC[C@@H](C(C)(C)C)C4)c1` [Example 230], the concentration for half-maximal inhibition (IC50) lay within 100 to 1000 nM.
With `CC1(C2CCc3nc4sc(C#N)c(N)c4cc3C2)CC1` (stereo not drawn) [Example 43], the IC50 fell in the range of 100 to 1000 nM.
The same measure, in the same setting: in the case of `CC(C)(C)C1CCc2nc3sc4c(=O)[nH]nnc4c3cc2C1` (stereo not drawn) [Example 119, 7-tert-Butyl-6,7,8,9-tetrahydro2H-11-thia-2,3,4,10-tetraazabenzo[b]fluoren-1-one] it was 1000 to 10000 nM.
In the case of `C[C@H]1CNCCN1C(=O)Nc1cccc([C@@H](CN)NC(=O)c2cc3cc4c(nc3s2)CC[C@@H](C(C)(C)C)C4)c1` [Example 276], the IC50 is < 100 nM.
Take `CC(CO)NC(=O)c1cc2cc3c(nc2s1)CCC(C(C)(C)C)C3` (stereo not drawn) [Example 82]: the IC50 fell in the range of 1000 to 10000 nM.
Take `C[C@@H]1CNCCN1C(=O)Nc1cccc([C@@H](CN)NC(=O)c2cc3cc4c(nc3s2)CC[C@@H](C(C)(C)C)C4)c1` [Example 277]: the IC50 was < 100 nM.
Turning to `CC(C)(C)C1CCc2nc3sc(C(=O)NCCCO)cc3cc2C1` (stereo not drawn) [Example 102], the IC50 is 100 to 1000 nM.
`CCCC1CCc2cc3c(N)c(C#N)sc3nc2C1` (stereo not drawn) [Example 49]: the IC50 was > 10000 nM.
On to `N#Cc1sc2nc3c(cc2c1N)CCCC3` [Example 45], for which the IC50 is > 10000 nM.
Take `Cn1nc(C(F)(F)F)c(C(=O)Nc2cccc([C@@H](CN)NC(=O)c3cc4cc5c(nc4s3)CC[C@@H](C(C)(C)C)C5)c2)c1Cl` [Example 246]: the IC50 is < 100 nM.
In the case of `CC(C)(C)[C@@H]1CCc2nc3sc(C(=O)N[C@H](CN)c4cccc(NC(=O)c5cc[nH]n5)c4)cc3cc2C1` [Example 236], the IC50 was < 100 nM.
Still for that read-out and setting: in the case of `CC(C)(C)C1CCc2nc3sc(C(=O)NO)cc3cc2C1` (stereo not drawn) [Example 104, 6-tert-Butyl-5,6,7,8-tetrahydrothieno[2,3-b]quinoline-2-carboxylic acid hydroxyamide] it was < 100 nM.

The same assay, now with this note: exact IC50 values, end-point assay (Table 2); read-out: IC50.
Consider `Cn1ccnc1C(=O)Nc1cccc([C@@H](CN)NC(=O)c2cc3cc4c(nc3s2)CC[C@@H](C(C)(C)C)C4)c1` [Example 250], for which the IC50 was 19 nM.
On to `CC(C)(C)[C@@H]1CCc2nc3sc(C(=O)N[C@H](CN)c4cccc(NC(=O)c5ccns5)c4)cc3cc2C1` [Example 235], for which the IC50 stood at 23 nM.
Turning to `C[C@@H]1CNCCN1C(=O)Nc1cccc([C@@H](CN)NC(=O)c2cc3cc4c(nc3s2)CC[C@@H](C(C)(C)C)C4)c1` [Example 277], the IC50 turned out to be 10 nM.
